# Results reported in patent publication US5393740A, “Neurotensin Hexapeptides” (Tsumura & Co., priority 1991, dated 1995).
# *1 amine or outer side, *2 acyl side, *3 side chain or, on linkers, in order; H or OH if unused. Where a SMILES comes first, the peptide text is derived from it. [ ]: non-standard residue; d: D form. X2 = CCCCN([C@@H](CCCNC(=N)N)C(=O)[*:2])[*:1]; Leu(ol) = CC(C)C[C@H](N)CO
# Experiments:
# [1] = test system: ddY mice; test: Acute toxicity test; assay type: in vivo, mouse; settings: intravenous injection, 2,000 times (64 μmol/kg) the effective amount
# Method: An acute toxicity test of peptides Nos. 1, 31 and 32 of the present invention was performed by using, ddY mice. […] No toxic expression was therefore observed.
# [2] = molecular target: thrombin (Homo sapiens, UniProt P00734); test: Protease inhibition action (thrombin, synthetic coloring base S-2238); assay type: biochemical; settings: thrombin final conc. 10 U/ml, preincubated at 37° C. for 5 minutes, S-2238 37° C. 15 minutes, 405 nm
# Method: Each of peptides Nos. 1, 31 to 34 was mixed at various volume with thrombin (final conc. 10 U/ml), and the resultant mixture was preincubated at 37° C. for 5 minutes. A synthetic coloring base (Test Team^R S-2238 available from Daiichi Kagaku Yakuhin) was added to the above preincubated mixture and was reacted at 37° C. for 15 minutes.
# 2% citric acid was added to the above mixture to stop the reaction. Hydrolysis was performed using residual thrombin, and free p-nitroaniline removed from the synthetic coloring base was subjected to colorimetric determination at a wavelength of 405 nm, thereby obtaining the inhibition capability with reference to 0.1M tris buffer. On the base of the inhibition capability thus obtained, a concentration of the peptides when each peptide inhibited the activity of thrombin with 50%, i.e. IC50 was calculated.
# [3] = test system: Hybrid grown-up dogs; test: Anti-DIC action (platelet number after endotoxin); assay type: in vivo, dog
# Method: Hybrid grown-up dogs (each group consisted of six dogs) were used in this experiment. 30 mg/kg of pentobarbital were intravenously injected to anesthetize each dog. Intravenous injection of 32 nmol/kg of each of peptides Nos. 1, 31 and 32 was performed. After 30 minutes, 3 mg/kg of an endotoxin derived from Escherichia Coli were intravenously injected while the artificial respiration was performed with air.
# Samples of blood were collecting from each dog immediately before the injection of the peptides and 120 minutes after the injection of the endotoxin.
# As a control, a experiment was performed according to same procedure as described above except that the hexapeptides was not injected.
# The number of platelets is the number per 1 mm^3 (1 μl) of the blood in Table 7.
# [4] = test system: SD rats; test: Wound healing action (traction tension of skin wound); assay type: in vivo, rat; settings: skin wound stripe, eighth day; 32 nmol/kg i.v. once a day for 8 days; male SD rats; control 456.2 ± 21.6
# From the text: The male SD rats (each group consisted of 10 rats) were anesthetized with ether and shaved in the back of the each rat, and the anesthetized portion was formed by a length of 30 mm along the median line by using a degreased, sterilized razor blade. The wound was immediately sutured at three equidistant positions, and the stitches were taken out after three days. The rats were subjected to hemorrhage to death in the eighth day, and the skins were peeled from the rats.
# A skin stripe having a size of 1 cm×4 cm was formed from a wounded portion of each rat. Both ends of this stripe were set in a wound curing measurement tensile test instrument (TK-251 available from Unicom), and a tensile force (traction tension: g/cm) required to cut the wound portion was measured.
# Each hexapeptide compound according to the present invention was dissolved in an acetic acid buffer solution added with 1% BSA and was intravenously injected to each rat for 8 days (once a day) from the date of wound formation. As a control, 1 ml/kg of the sodium acetat buffered solution added with 1% BSA instead of the hexapeptide solutions was injected according to same procedure as described above.
# [5] = test system: ICR mice; test: Anti-shock action (endotoxin-induced lethality); assay type: in vivo, mouse; settings: 32 nmol/kg × 4 intravenously, endotoxin (LPS E. coli 0127B8) 10 mg/kg i.v. after 10 minutes; male ICR mice; control 80
# Method: In this experiment, male ICR mice (each group consisted of 10 mice) each having a weight of 25 g to 35 g were used. Each of peptides Nos. 1, 31 and 32 was dissolved in a sodium acetate buffered solution (pH 6.0) added with 1% BSA or in a physiological saline.
# An endotoxin to induce a shock was obtained by dissolving Lipopolysaccharide [E. coli; 0127B8 (Difco)] in a physiological saline.
# Each of peptialdes Nos. 1, 31 and 32 was intravenously injected at a by dose of 5 ml/kg to each mouse, and the endotoxin with concentration of 10 mg/kg was intravenously injected at a dose of 5 ml/kg after 10 minutes. The lethal rates (%) of these mice within 24 hours were measured. As a control, 5 ml/kg of the sodium acetate buffered solution added with 1% BSA was injected instead of the hexapeptide of the present invention.
# [6] = test system: Wistar rats; test: Anti-edematous action (freezing-induced vascular cerebral edema); assay type: in vivo, rat; settings: left cerebral cortex, 32 nmol/kg i.v. 10 minutes before and 20 minutes after the freezing, male Wistar rats, control 81.4
# Method: In this experiment, 8-week male Wistar rats were used, and peptides Nos. 1, 31 and 32 dissolved in a saline added with 1% BSA were used.
# Iron column whose diameter was 5 mm cooled by dryice acetone was placed on the left epidural portion of each rat to cause a vascular cerebral edema. Freezing was performed to form an injured portion after an hour, and the brain of each rat was taken out. The brain was divided into right and left cerebral cortices, and weights of the left cerebral cortices were measured. The left cerebral cortices was dried at 105° C. for 24 hours, and weights of the dried left cerebral cortices were measured to obtain water contents (%). In this operations, the peptides Nos. 1, 31 and 32 were intravenously injected at the concentration shown in Table 6 to each rat 10 minutes before and 20 minutes after the freezing. As a control, 1 ml/kg of the saline added with 1% BSA instead of the peptides was injected into rat according to same procedures as described above.
# [7] = test system: Wister rats; test: Anti-allergic action (passive cutaneous anaphylaxis reaction); assay type: in vivo, rat; settings: PCA reaction, 32 nmol g/kg i.v. 10 minutes before provocation, control 188.3 ± 9.71
# Method: In this experiment, 6-week, male Wister rats (each group consisted of 10 rats) were used, and the back of these rats were shaved.
# An anti-egg albumin rat serum was diluted with a saline to forty-fold of its volume, thereby obtaining an anti-egg albumin rat serum solution. 1 ml of the anti-egg albumin rat serum solution was intradermally injected to both side parts against the median line in the shaved portion, thereby sensitizing passively the rats. After 48 hours, 1 ml of a 0.5% Evans blue solution containing 10 mg of a egg-albumin was intravenously injected to the each rat, thereby provocating a passive cutaneous anaphylaxis (PCA) reaction.
# After 30 minutes, the rats were decapitated, thereby subjecting to hemorrhage to death. The skins were peeled from the rats, and a long diameter and a short diameter of a blue stained portions caused by the PCA reaction in each rat were measured, and area of the blue-stained portions were calculated on the base of the obtained data.
# In these operations, the of peptides Nos. 1, 31 and 32 were dissolved in a sodium acetate buffered solution containing 1% BSA and was intravenously injected to each rat at 10 minutes before the provocation of the PCA reaction. As a control, the sodium acetate buffer solution containing 1% BSA instead of the peptide solutions was injected according to same procedure as described above.
# [8] = test system: Sprague-Dawley (SD) rats; test: Vascular permeability acceleration suppression action (hot-water leg edema); assay type: in vivo, rat; settings: suppression of rate of increase in leg volume vs control; 1 ml/kg into femoral vein 10 minutes before dipping leg in 58° C. hot water for one minute; male SD rats
# Method: After 6-week male Sprague-Dawley (SD) rats (each group consisted of 10 rats) were fed for a week, they were used in this experiment.
# The concentrations of samples of the hexapeptides (peptide Nos. 1 to 30) were dissolved by an acetic acid buffer solution added with a 1% bovine serum albumin (BSA).
# An aliqrot of 1 ml/kg of each of the peptides Nos. 1 to 30 was injected into the femoral vein of the right leg of each rat anesthetized with 50 mg/kg of Nembutal Sodium (available from Dainippon Pharmaceutical Co., Ltd.). After 10 minutes, the nontreated left leg of the rat was dipped in 58° C. hot water for one minute to form an edema. Each rat was left at room temperature for 29 minutes, and the volumes of both legs of each rat were measured. As a control, the experiment following the same procedure as describe above was performed except that 1 ml/kg of a sodium acetate buffered solution containing 1% BSA instead of the hexapeptide of the present invention was injected in rats.
# A rate (%) of increase in leg volume was calculated from the result of the above measurement by equation (1) below: [formula]
# The rates were compared with that of the control.
# - X: rate of increase in leg volume (%) of the present invention.
# Xo: rate of increase in leg volume (%) of the control
Compound,acute toxicity (death) [1],IC50 [2] [nM],other results
"CC[C@H](C)[C@H](NC(=O)[C@H](Cc1ccc(O)cc1)NC(=O)[C@@H]1CCCN1C(=O)[C@H](CCCNC(=N)N)NC(=O)CCCCNC(=N)N)C(=O)N[C@@H](CC(C)C)C(=O)O [Peptide No. 1, Desamino-Arg--Arg--Pro--Tyr--Ile--Leu--OH]",No mice were dead,2500,–
"CC[C@H](C)[C@H](NC(=O)[C@H](Cc1ccc(O)cc1)NC(=O)[C@@H]1CCCN1C(=O)[C@H](CCCNC(=N)N)NC(=O)[C@H](CCCNC(=N)N)NC(C)=O)C(=O)N[C@H](CO)CC(C)C [Peptide No. 31, N-acetyl--Arg--Arg--Pro--Tyr--Ile-Leucinol]",No mice were dead,2300,–
"CC[C@H](C)[C@H](NC(=O)[C@H](Cc1ccc(O)cc1)NC(=O)[C@@H]1CCCN1C(=O)[C@H](CCCNC(=N)N)NC(=O)[C@H](CCCNC(=N)N)NC(C)=O)C(=O)N[C@@H](CC(C)C)C(N)=O [Peptide No. 32, N-acetyl--Arg--Arg--Pro--Tyr--Ile--Leu--NH2]",No mice were dead,2200,"Average Number of Platelets 120 Minutes after Venous Injection of Endotoxin ([3]; 32 nmol/kg i.v. 30 minutes before 3 mg/kg E. coli endotoxin i.v., control 43 × 10^4): 58 × 10^4 per 1 mm^3 (1 μl) of the blood; Average Number of Platelets Immediately before Injection Endotoxin ([3]; 32 nmol/kg i.v., baseline sample, control 72 × 10^4): 71 × 10^4 per 1 mm^3 (1 μl) of the blood; Traction Tension [4]: 547.0 ± 32.3 g/cm; Lethal rate within 24 hours (%) [5]: 20%; Water Content (%) [6]: 80.6%; Area of blue-stained portion (mm^2) [7]: 112.8 ± 4.83 mm^2"
"CCCCN[C@@H](CCCNC(=N)N)C(=O)N[C@@H](CCCNC(=N)N)C(=O)N1CCC[C@H]1C(=O)N[C@@H](Cc1ccc(O)cc1)C(=O)N[C@H](C(=O)N[C@H](CO)CC(C)C)[C@@H](C)CC [Peptide No. 33, N-buthyl--Arg--Arg--Pro--Tyr--Ile--Leucinol] (H-[X2]RPYI[Leu(ol)])",–,2300,–
Desamino-Arg-D-Lys--Pro--Trp--Ile-Leucinol [Peptide No. 23],–,–,Suppression Rate (%) [8]: 20.8%
